Results published in the NIST ThermoML archive (doi:10.1021/je030236t).
± gives the expanded uncertainty stated by the source.

Experiments:
[1] = Molar enthalpy of transition or fusion; conditions: Crystal; DSC
[2] = molar enthalpy of vaporization or sublimation; conditions: 298.15 K; Liquid
[3] = Liquid

| Structure (SMILES) | molar enthalpy [2] [kcal/mol] | vapor or sublimation pressure ([3]; 298.15 K) [kPa] | vapor or sublimation pressure ([3]; 310 K) [kPa] | vapor or sublimation pressure ([3]; 320 K) [kPa] | vapor or sublimation pressure ([3]; 330 K) [kPa] | vapor or sublimation pressure ([3]; 340 K) [kPa] | vapor or sublimation pressure ([3]; 350 K) [kPa] | vapor or sublimation pressure ([3]; 360 K) [kPa] | vapor or sublimation pressure ([3]; 370 K) [kPa] | vapor or sublimation pressure ([3]; 380 K) [kPa] | vapor or sublimation pressure ([3]; 390 K) [kPa] | vapor or sublimation pressure ([3]; 400 K) [kPa] | vapor or sublimation pressure ([3]; 410 K) [kPa] | vapor or sublimation pressure ([3]; 420 K) [kPa] | vapor or sublimation pressure ([3]; 430 K) [kPa] | vapor or sublimation pressure ([3]; 440 K) [kPa] | vapor or sublimation pressure ([3]; 450 K) [kPa] | vapor or sublimation pressure ([3]; 460 K) [kPa] | vapor or sublimation pressure ([3]; 470 K) [kPa] | vapor or sublimation pressure ([3]; 480 K) [kPa] | other results |
| --- | --- | --- | --- | --- | --- | --- | --- | --- | --- | --- | --- | --- | --- | --- | --- | --- | --- | --- | --- | --- | --- |
| c1ccc(-c2cc(-c3ccccc3)cc(-c3ccccc3)c2)cc1 [1,3,5-triphenylbenzene] |  |  |  |  |  |  |  |  |  |  |  |  |  |  |  |  |  |  |  |  | Molar enthalpy of transition or fusion [1]: 7.43 ± 0.215 kcal/mol |
| CCCCCCCCCCCCCCCCCCCCCCCCCCCCCCC [hentriacontane] | 37.6 ± 1.96 | 1.11e-11 ± 2.2e-12 | 1.23e-10 ± 2.5e-11 | 7.88e-10 ± 1.6e-10 | 4.39e-09 ± 8.8e-10 | 2.15e-08 ± 4.3e-09 | 9.39e-08 ± 1.9e-08 | 3.69e-07 ± 7.4e-08 | 1.32e-06 ± 2.6e-07 | 4.3e-06 ± 8.6e-07 | 1.3e-05 ± 2.6e-06 | 3.64e-05 ± 7.3e-06 | 9.56e-05 ± 1.9e-05 | 0.000236 ± 4.7e-05 | 0.00055 ± 0.00011 | 0.00122 ± 0.00024 | 0.00256 ± 0.00051 | 0.00517 ± 0.001 | 0.01 ± 0.002 | 0.0187 ± 0.0037 | vapor or sublimation pressure ([3]; 490 K): 0.0336 ± 0.0067 kPa; vapor or sublimation pressure ([3]; 500 K): 0.0585 ± 0.012 kPa; vapor or sublimation pressure ([3]; 510 K): 0.0989 ± 0.02 kPa; vapor or sublimation pressure ([3]; 520 K): 0.163 ± 0.033 kPa; vapor or sublimation pressure ([3]; 530 K): 0.26 ± 0.052 kPa; vapor or sublimation pressure ([3]; 540 K): 0.406 ± 0.081 kPa; vapor or sublimation pressure ([3]; 550 K): 0.619 ± 0.12 kPa; vapor or sublimation pressure ([3]; 560 K): 0.925 ± 0.18 kPa; vapor or sublimation pressure ([3]; 570 K): 1.35 ± 0.27 kPa; vapor or sublimation pressure ([3]; 580 K): 1.95 ± 0.39 kPa |
| CCCCCCCCCCCCCCCCCCCCCCCCCCCCCCCCCC [tetratriacontane] | 41.3 ± 2.1 | 3.83e-13 ± 7.7e-14 | 5.39e-12 ± 1.1e-12 | 4.16e-11 ± 8.3e-12 | 2.75e-10 ± 5.5e-11 | 1.58e-09 ± 3.2e-10 | 7.97e-09 ± 1.6e-09 | 3.59e-08 ± 7.2e-09 | 1.45e-07 ± 2.9e-08 | 5.34e-07 ± 1.1e-07 | 1.8e-06 ± 3.6e-07 | 5.58e-06 ± 1.1e-06 | 1.61e-05 ± 3.2e-06 | 4.34e-05 ± 8.7e-06 | 0.00011 ± 2.2e-05 | 0.000263 ± 5.3e-05 | 0.000596 ± 0.00012 | 0.00129 ± 0.00026 | 0.00266 ± 0.00053 | 0.00527 ± 0.001 | vapor or sublimation pressure ([3]; 490 K): 0.01 ± 0.002 kPa; vapor or sublimation pressure ([3]; 500 K): 0.0184 ± 0.0037 kPa; vapor or sublimation pressure ([3]; 510 K): 0.0328 ± 0.0066 kPa; vapor or sublimation pressure ([3]; 520 K): 0.0564 ± 0.011 kPa; vapor or sublimation pressure ([3]; 530 K): 0.0944 ± 0.019 kPa; vapor or sublimation pressure ([3]; 540 K): 0.154 ± 0.031 kPa; vapor or sublimation pressure ([3]; 550 K): 0.244 ± 0.049 kPa; vapor or sublimation pressure ([3]; 560 K): 0.379 ± 0.076 kPa; vapor or sublimation pressure ([3]; 570 K): 0.575 ± 0.12 kPa; vapor or sublimation pressure ([3]; 580 K): 0.856 ± 0.17 kPa |
